Reference: patent EP4745137A1 (Gluetacs Therapeutics (Shanghai) Co., Ltd., priority 2023, dated 2025)
pIC50: −log10 of the molar value.

What was measured:
[1] = test system: Human breast cancer cells (MDA-MB-231); experiment: Tumor cell proliferation inhibition (CellTiter-Meiluncell Luminescent Cell Viability Assay), MDA-MB-231; settings: for inhibition at 0.01 µM: MDA-MB-231, read-out: Inhibition rate (%) at 10 nM; for inhibition at 0.5 µM: MDA-MB-231, read-out: Inhibition rate (%) at 500 nM; for IC50: MDA-MB-231, 96 h, read-out: inhibitory activity (IC50, nM) against tumor cells proliferation, MDA-MB-231
WEE1 = molecular target: T1, WEE1 (Homo sapiens, UniProt P30291+Q96SW2); experiment: Western-blot assay of substrate protein degradation in hPBMCs, WEE1; format: cell-based; settings: 24 hours of compound treatment
T1 construct: endogenous in cells; host or cells: hPBMCs (Milecell Biotechnologies)

GSPT1 = molecular target: T2, GSPT1 (Homo sapiens, UniProt P15170+Q96SW2); experiment: Western-blot assay of substrate protein degradation in hPBMCs, GSPT1; format: cell-based; settings: 24 hours of compound treatment
T2 construct: endogenous in cells; host or cells: hPBMCs (Milecell Biotechnologies)

IKZF2 = molecular target: T3, IKZF2 (Homo sapiens, UniProt Q96SW2+Q9UKS7); experiment: Western-blot assay of substrate protein degradation in hPBMCs, IKZF2; format: cell-based; settings: 24 hours of compound treatment
T3 construct: endogenous in cells; host or cells: hPBMCs (Milecell Biotechnologies)

IKZF3 = molecular target: T4, IKZF3 (Homo sapiens, UniProt Q96SW2+Q9UKT9); experiment: Western-blot assay of substrate protein degradation in hPBMCs, IKZF3; format: cell-based; settings: 24 hours of compound treatment
T4 construct: endogenous in cells; host or cells: hPBMCs (Milecell Biotechnologies)

CK1α = molecular target: T5, CK1α (Homo sapiens, UniProt P48729+Q96SW2); experiment: Western-blot assay of substrate protein degradation in hPBMCs, CK1α; format: cell-based; settings: 24 hours of compound treatment
T5 construct: endogenous in cells; host or cells: hPBMCs (Milecell Biotechnologies)

IKZF1 = molecular target: T6, IKZF1 (Homo sapiens, UniProt Q13422+Q96SW2); experiment: Western-blot assay of substrate protein degradation in hPBMCs, IKZF1; format: cell-based; settings: 24 hours of compound treatment
T6 construct: endogenous in cells; host or cells: hPBMCs (Milecell Biotechnologies)

[2] = molecular target: T7, human Cereblon WT GST-tagged protein (Homo sapiens, UniProt Q96SW2); experiment: CRBN-binding affinity by HTRF (CEREBLON BINDING kit); settings: HTRF inhibitory activity, CEREBLON BINDING kit; read-out: HTRF IC50
T7 construct: purchased CISBIO 64BDCRBNPEH

[3] = test system: Human acute T lymphocytic leukemia cells (Molt-4); experiment: Tumor cell proliferation inhibition (CellTiter-Meiluncell Luminescent Cell Viability Assay), Molt-4; settings: MOLT-4, 96 h, read-out: inhibitory activity (IC50, nM) against tumor cells proliferation, Molt 4
NCI-H1975 = experiment: Tumor cell proliferation inhibition (CellTiter-Meiluncell Luminescent Cell Viability Assay), NCI-H1975; settings: Homo sapiens, NCI-H1975, 96 h, read-out: inhibitory activity (IC50, nM) against tumor cells proliferation, H1975
Experimental: The tumor cells used herein were cultured in a cell culture medium listed in table 2 at 37°C in an incubator with 5% CO2. Prior to experimentation, all cell lines used were correctly identified by STR profiling, and tested negative for mycoplasma contamination using a mycoplasma detection kit through routine screenings.
On the following day, the test compounds of the present disclosure were subjected to serial dilution. […] Subsequently, 0.5 µL of the test compound dilution was transferred into the 96-well plate containing the cells, with each well containing 100 µL of cell culture medium. […] Into the 96-well plate, the diluted test compounds and corresponding detection reagents were added, resulting in final test compound concentrations of 500 nM and 10 nM, respectively. The experimental procedure is described below using the diluted 2 µM test compound as an example.
After the cells were treated with the compounds of the present disclosure for a specified period (the treatment durations were shown in Table 3), the cell viability assay reagent was added to the culture medium according to the kit's instructions to determine cell viability. […] All controls were treated using the same procedure as the compounds of the present disclosure. The growth inhibition curves for the compounds of the present disclosure were plotted using Prism GraphPad software, and the IC50 values were calculated therefrom.

[4] = 50 nM and 500 nM tested (concentration behind the class not stated)
[5] = compounds tested at 50 nM and 500 nM (concentration of the table not stated)

T3 sequence (Q9UKS7 whole entry): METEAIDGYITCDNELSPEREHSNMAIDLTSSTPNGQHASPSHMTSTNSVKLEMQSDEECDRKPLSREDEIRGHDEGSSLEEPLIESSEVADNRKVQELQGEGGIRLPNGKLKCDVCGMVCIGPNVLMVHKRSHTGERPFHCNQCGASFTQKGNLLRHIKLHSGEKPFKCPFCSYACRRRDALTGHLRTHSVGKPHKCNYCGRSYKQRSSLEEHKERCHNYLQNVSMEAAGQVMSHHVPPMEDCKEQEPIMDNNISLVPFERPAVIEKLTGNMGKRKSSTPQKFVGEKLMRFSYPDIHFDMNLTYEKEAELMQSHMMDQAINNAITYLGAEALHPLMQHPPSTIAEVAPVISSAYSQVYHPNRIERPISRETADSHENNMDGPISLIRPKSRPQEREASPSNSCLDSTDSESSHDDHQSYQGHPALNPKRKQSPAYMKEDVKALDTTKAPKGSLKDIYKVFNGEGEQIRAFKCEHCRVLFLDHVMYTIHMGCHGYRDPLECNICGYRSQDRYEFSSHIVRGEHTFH
T3 sequence (Q96SW2 whole entry): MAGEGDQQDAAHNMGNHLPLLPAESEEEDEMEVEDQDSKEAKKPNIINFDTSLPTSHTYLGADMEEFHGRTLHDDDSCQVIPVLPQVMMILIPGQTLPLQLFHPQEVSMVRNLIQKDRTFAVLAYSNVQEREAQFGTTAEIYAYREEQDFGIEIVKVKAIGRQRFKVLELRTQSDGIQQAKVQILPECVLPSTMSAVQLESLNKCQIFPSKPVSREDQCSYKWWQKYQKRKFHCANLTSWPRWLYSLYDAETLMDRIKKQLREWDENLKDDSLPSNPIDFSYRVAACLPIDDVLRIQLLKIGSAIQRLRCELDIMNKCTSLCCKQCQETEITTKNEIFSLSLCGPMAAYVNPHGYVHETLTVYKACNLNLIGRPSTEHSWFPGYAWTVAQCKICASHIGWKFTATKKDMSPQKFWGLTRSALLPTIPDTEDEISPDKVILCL
T3 sequence (Q16531 whole entry partner): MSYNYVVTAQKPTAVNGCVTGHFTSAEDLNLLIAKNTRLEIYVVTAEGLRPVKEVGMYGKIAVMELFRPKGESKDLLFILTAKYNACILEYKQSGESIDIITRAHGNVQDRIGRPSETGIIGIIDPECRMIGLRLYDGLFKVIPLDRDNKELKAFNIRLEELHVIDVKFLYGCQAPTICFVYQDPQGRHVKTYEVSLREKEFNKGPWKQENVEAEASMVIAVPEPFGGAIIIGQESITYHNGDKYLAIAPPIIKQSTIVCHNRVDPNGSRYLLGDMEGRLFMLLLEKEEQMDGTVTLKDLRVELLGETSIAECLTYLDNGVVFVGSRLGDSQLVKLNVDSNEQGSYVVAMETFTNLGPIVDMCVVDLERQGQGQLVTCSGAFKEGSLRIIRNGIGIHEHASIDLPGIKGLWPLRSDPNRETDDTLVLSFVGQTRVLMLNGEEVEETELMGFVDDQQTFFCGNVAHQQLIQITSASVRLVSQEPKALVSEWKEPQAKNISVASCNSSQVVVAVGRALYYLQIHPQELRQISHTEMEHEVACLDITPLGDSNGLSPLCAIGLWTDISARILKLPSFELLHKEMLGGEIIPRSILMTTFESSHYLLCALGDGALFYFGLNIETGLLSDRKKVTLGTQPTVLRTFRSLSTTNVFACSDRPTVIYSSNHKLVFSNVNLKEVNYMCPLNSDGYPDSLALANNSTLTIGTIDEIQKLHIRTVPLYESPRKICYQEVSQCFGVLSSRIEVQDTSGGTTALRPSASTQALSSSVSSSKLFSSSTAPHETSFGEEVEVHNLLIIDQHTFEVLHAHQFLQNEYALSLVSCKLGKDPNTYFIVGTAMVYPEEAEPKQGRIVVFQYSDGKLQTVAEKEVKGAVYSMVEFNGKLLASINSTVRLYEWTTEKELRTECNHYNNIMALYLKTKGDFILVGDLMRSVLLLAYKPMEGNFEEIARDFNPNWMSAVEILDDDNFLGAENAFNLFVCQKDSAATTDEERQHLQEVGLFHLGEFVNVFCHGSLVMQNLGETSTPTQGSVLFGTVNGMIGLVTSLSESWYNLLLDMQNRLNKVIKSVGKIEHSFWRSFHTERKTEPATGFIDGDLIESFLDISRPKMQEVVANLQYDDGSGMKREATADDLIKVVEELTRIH
T2 sequence (P15170 whole entry): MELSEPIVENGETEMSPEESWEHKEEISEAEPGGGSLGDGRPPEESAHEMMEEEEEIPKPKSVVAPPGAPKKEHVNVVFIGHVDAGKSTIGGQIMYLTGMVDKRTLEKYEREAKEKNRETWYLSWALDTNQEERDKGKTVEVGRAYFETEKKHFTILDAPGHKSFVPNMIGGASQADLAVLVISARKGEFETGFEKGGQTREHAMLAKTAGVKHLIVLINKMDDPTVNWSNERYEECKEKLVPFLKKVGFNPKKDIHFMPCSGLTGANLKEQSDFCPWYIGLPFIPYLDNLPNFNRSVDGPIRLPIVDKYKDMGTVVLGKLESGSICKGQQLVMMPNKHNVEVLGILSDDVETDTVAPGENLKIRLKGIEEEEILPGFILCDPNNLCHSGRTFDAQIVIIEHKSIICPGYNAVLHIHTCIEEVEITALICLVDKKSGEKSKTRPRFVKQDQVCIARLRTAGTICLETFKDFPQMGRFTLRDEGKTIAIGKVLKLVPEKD
T2 sequence (Q96SW2 whole entry): as the sequence (Q96SW2 whole entry) above
T2 sequence (Q16531 whole entry partner): as the sequence (Q16531 whole entry partner) above
T4 sequence (Q9UKT9 whole entry): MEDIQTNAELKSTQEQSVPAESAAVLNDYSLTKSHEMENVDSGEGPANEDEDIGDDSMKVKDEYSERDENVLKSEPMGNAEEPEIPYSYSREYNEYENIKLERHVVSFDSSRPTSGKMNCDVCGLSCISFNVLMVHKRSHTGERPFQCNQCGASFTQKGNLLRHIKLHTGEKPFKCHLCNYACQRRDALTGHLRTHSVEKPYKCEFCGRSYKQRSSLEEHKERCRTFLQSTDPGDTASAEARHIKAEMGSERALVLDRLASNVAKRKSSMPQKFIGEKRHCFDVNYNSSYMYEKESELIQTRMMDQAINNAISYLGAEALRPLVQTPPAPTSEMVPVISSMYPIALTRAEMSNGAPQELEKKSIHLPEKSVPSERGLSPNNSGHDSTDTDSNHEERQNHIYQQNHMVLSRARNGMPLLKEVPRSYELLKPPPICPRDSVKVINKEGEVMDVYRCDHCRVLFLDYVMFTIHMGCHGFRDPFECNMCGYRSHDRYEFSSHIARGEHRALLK
T4 sequence (Q96SW2 whole entry): as the sequence (Q96SW2 whole entry) above
T4 sequence (Q16531 whole entry partner): as the sequence (Q16531 whole entry partner) above
T7 sequence (Q96SW2 whole entry): as the sequence (Q96SW2 whole entry) above
T1 sequence (P30291 whole entry): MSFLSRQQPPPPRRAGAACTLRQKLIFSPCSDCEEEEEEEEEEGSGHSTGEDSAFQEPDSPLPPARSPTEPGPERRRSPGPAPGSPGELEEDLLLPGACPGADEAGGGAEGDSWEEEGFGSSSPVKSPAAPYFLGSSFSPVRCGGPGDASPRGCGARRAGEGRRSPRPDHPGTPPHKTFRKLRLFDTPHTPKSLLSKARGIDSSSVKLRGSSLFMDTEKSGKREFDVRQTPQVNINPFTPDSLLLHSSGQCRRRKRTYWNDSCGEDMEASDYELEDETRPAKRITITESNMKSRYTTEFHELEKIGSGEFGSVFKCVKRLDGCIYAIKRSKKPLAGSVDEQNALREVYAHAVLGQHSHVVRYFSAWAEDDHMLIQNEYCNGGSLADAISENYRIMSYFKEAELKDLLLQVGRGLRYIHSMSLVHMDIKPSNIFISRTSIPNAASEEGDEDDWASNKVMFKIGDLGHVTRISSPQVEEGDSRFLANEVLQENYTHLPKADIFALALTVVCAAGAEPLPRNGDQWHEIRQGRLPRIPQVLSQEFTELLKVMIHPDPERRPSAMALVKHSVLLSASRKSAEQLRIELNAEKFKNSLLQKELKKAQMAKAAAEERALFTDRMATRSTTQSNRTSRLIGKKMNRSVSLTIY
T1 sequence (Q96SW2 whole entry): as the sequence (Q96SW2 whole entry) above
T1 sequence (Q16531 whole entry partner): as the sequence (Q16531 whole entry partner) above
T6 sequence (Q13422 whole entry): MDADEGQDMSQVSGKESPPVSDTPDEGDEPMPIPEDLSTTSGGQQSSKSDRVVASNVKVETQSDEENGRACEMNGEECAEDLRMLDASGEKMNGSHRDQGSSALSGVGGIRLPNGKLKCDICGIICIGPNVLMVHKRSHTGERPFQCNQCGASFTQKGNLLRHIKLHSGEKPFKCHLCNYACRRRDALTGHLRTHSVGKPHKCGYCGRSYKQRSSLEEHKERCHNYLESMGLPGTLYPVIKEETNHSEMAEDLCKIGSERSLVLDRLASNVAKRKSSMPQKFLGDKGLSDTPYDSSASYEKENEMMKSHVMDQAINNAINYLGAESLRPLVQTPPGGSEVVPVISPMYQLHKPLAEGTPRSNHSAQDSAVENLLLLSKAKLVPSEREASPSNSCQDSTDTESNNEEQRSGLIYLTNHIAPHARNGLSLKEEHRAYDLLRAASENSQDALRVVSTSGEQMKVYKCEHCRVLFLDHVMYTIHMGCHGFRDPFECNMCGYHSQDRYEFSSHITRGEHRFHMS
T6 sequence (Q96SW2 whole entry): as the sequence (Q96SW2 whole entry) above
T6 sequence (Q16531 whole entry partner): as the sequence (Q16531 whole entry partner) above

pIC50 [2] | IC50 [3] | Structure (SMILES) | inhibition at 0.01 µM [1] | inhibition at 0.5 µM [1] | Weel substrate protein remaining % (WEE1; [4]) | GSPT1 substrate protein remaining % (GSPT1; [4]) | IKZF2 substrate protein remaining % (IKZF2; [4]) | IKZF3 substrate protein remaining % (IKZF3; [4]) | CK1a substrate protein remaining % (CK1α; [4]) | IKZF 1 substrate protein remaining % (IKZF1; [4]) | Weel substrate protein remaining % (WEE1; [5]) | GSPT1 substrate protein remaining % (GSPT1; [5]) | IKZF2 substrate protein remaining % (IKZF2; [5]) | IKZF3 substrate protein remaining % (IKZF3; [5]) | CK1a substrate protein remaining % (CK1α; [5]) | IC50 [1] | IC50 (NCI-H1975) | IKZF 1 substrate protein remaining % (IKZF1; [5])
 |  | O=C1CCC(N2C(=O)c3ccc(CN4CCN(c5ncccc5Cl)CC4)cc3C2=O)C(=O)N1 (centres unmarked) [GT-07843, 5-((4-(3-chloropyridin-2-yl)piperazin-1-yl)methyl)-2-(2,6-dioxopiperidin-3-yl)isoindoline-1,3-dione] | 30 to 40% | 30 to 40% |  |  |  |  |  |  |  |  |  |  |  |  |  | 
 |  | O=C1CCC(N2C(=O)c3ccc(CN4CCN(c5nc(N6CCCC6)nc6c5SCC6)CC4)cc3C2=O)C(=O)N1 (centres unmarked) [GT-08004, 2-(2,6-dioxopiperidin-3-yl)-5-((4-(2-(pyrrolidin-1-yl)-6,7-dihydrothieno[3,2-d]pyrimidin-4-yl)piperazin-1-yl)methyl)isoindoline-1,3-dione] | 30 to 40% | 40 to 50% | B (80%< substrate protein remaining %≤ 100%) | A (0% ≤ substrate protein remaining % ≤ 80%) | A (0% ≤ substrate protein remaining % ≤ 80%) | A (0% ≤ substrate protein remaining % ≤ 80%) | B (80%< substrate protein remaining %≤ 100%) | A (0% ≤ substrate protein remaining % ≤ 80%) |  |  |  |  |  |  |  | 
> 6.30 | 500 to 1000 nM | O=C1CCC(N2Cc3cc(CN4CCN(c5nc(N6CCOCC6)nc6c5SCC6)CC4)ccc3C2=O)C(=O)N1 (centres unmarked) [GT-04710, 3-(5-((4-(2-morpholino-6,7-dihydrothieno[3,2-d]pyrimidin-4-yl)piperazin-1-yl)methyl)-1-oxoisoindolin-2-yl)piperidine-2,6-dione] |  |  |  |  |  |  |  |  | B (80%< substrate protein remaining %≤ 100%) | A (0% ≤ substrate protein remaining % ≤ 80%) | B (80%< substrate protein remaining %≤ 100%) | A (0% ≤ substrate protein remaining % ≤ 80%) | A (0% ≤ substrate protein remaining % ≤ 80%) |  |  | B (80%< substrate protein remaining %≤ 100%)
 |  | O=C1CCC(N2C(=O)c3ccc(CN4CCN(c5nc(N6CCC6)nc6c5SCC6)CC4)cc3C2=O)C(=O)N1 (centres unmarked) [GT-08005, 5-((4-(2-(azetidin-1-yl)-6,7-dihydrothieno[3,2-d]pyrimidin-4-yl)piperazin-1-yl)methyl)-2-(2,6-dioxopiperidin-3-yl)isoindoline-1,3-dione] | 20 to 30% | 30 to 40% | B (80%< substrate protein remaining %≤ 100%) | B (80%< substrate protein remaining %≤ 100%) | A (0% ≤ substrate protein remaining % ≤ 80%) | A (0% ≤ substrate protein remaining % ≤ 80%) | B (80%< substrate protein remaining %≤ 100%) | A (0% ≤ substrate protein remaining % ≤ 80%) |  |  |  |  |  |  |  | 
6.00 to 6.30 | 500 to 1000 nM | O=C1CCC(N2Cc3cc(CN4CCN(c5nccc(Cl)c5F)CC4)ccc3C2=O)C(=O)N1 (centres unmarked) [GT-04610, 3-(5-((4-(4-chloro-3-fluoropyridin-2-yl)piperazin-1-yl)methyl)-1-oxoisoindolin-2-yl)piperidine-2,6-dione] |  |  |  |  |  |  |  |  | A (0% ≤ substrate protein remaining % ≤ 80%) | A (0% ≤ substrate protein remaining % ≤ 80%) | A (0% ≤ substrate protein remaining % ≤ 80%) | A (0% ≤ substrate protein remaining % ≤ 80%) | A (0% ≤ substrate protein remaining % ≤ 80%) |  |  | A (0% ≤ substrate protein remaining % ≤ 80%)
> 6.30 | 50 to 100 nM | O=C1CCC(N2Cc3cc(CN4CC=C(c5c[nH]c6cc(F)ccc56)CC4)ccc3C2=O)C(=O)N1 (centres unmarked) [GT-04722, 3-(5-((4-(6-fluoro-1H-indol-3-yl)-3,6-dihydropyridin-1(2H)-yl)methyl)-1-oxoisoindolin-2-yl)piperidine-2,6-dione] |  |  |  |  |  |  |  |  | B (80%< substrate protein remaining %≤ 100%) | A (0% ≤ substrate protein remaining % ≤ 80%) | B (80%< substrate protein remaining %≤ 100%) | A (0% ≤ substrate protein remaining % ≤ 80%) | A (0% ≤ substrate protein remaining % ≤ 80%) | 100 to 500 nM | 100 to 500 nM | B (80%< substrate protein remaining %≤ 100%)
> 6.30 | 50 to 100 nM | Cc1ccsc1N1CCN(Cc2ccc3c(c2)CN(C2CCC(=O)NC2=O)C3=O)CC1 (centres unmarked) [GT-04582, 3-(5-((4-(3-methylthiophen-2-yl)piperazin-1-yl)methyl)-1-oxoisoindolin-2-yl)piperidine-2,6-dione] |  |  |  |  |  |  |  |  | A (0% ≤ substrate protein remaining % ≤ 80%) | A (0% ≤ substrate protein remaining % ≤ 80%) | A (0% ≤ substrate protein remaining % ≤ 80%) | A (0% ≤ substrate protein remaining % ≤ 80%) | B (80%< substrate protein remaining %≤ 100%) |  |  | A (0% ≤ substrate protein remaining % ≤ 80%)
6.00 to 6.30 | 100 to 500 nM | O=C1CCC(N2Cc3cc(CN4CC(n5cnc6cc(F)ccc65)C4)ccc3C2=O)C(=O)N1 (centres unmarked) [GT-04716, 3-(5-((3-(5-fluoro-1H-benzo[d]imidazol-1-yl)azetidin-1-yl)methyl)-1-oxoisoindolin-2-yl)piperidine-2,6-dione] |  |  |  |  |  |  |  |  | B (80%< substrate protein remaining %≤ 100%) | A (0% ≤ substrate protein remaining % ≤ 80%) | B (80%< substrate protein remaining %≤ 100%) | B (80%< substrate protein remaining %≤ 100%) | B (80%< substrate protein remaining %≤ 100%) |  |  | B (80%< substrate protein remaining %≤ 100%)

Structure (SMILES) | pIC50 [2] | IC50 [3] | inhibition at 0.01 µM [1] | inhibition at 0.5 µM [1] | Weel substrate protein remaining % (WEE1; [4]) | GSPT1 substrate protein remaining % (GSPT1; [4]) | IKZF2 substrate protein remaining % (IKZF2; [4]) | IKZF3 substrate protein remaining % (IKZF3; [4]) | CK1a substrate protein remaining % (CK1α; [4]) | IKZF 1 substrate protein remaining % (IKZF1; [4]) | Weel substrate protein remaining % (WEE1; [5]) | GSPT1 substrate protein remaining % (GSPT1; [5]) | IKZF2 substrate protein remaining % (IKZF2; [5]) | IKZF3 substrate protein remaining % (IKZF3; [5]) | CK1a substrate protein remaining % (CK1α; [5]) | IC50 [1] | IC50 (NCI-H1975) | IKZF 1 substrate protein remaining % (IKZF1; [5])
O=C1CCC(N2Cc3cc(CN4C5CC4CN(c4cccc(Cl)c4Cl)C5)ccc3C2=O)C(=O)N1 (centres unmarked) [GT-04712, 3-(5-((3-(2,3-dichlorophenyl)-3,6-diazabicyclo[3.1.1]heptan-6-yl)methyl)-1-oxoisoindolin-2-yl)piperidine-2,6-dione] | 6.00 to 6.30 | 10 to 50 nM |  |  |  |  |  |  |  |  | B (80%< substrate protein remaining %≤ 100%) | A (0% ≤ substrate protein remaining % ≤ 80%) | B (80%< substrate protein remaining %≤ 100%) | A (0% ≤ substrate protein remaining % ≤ 80%) | A (0% ≤ substrate protein remaining % ≤ 80%) | 50 to 100 nM | 100 to 500 nM | B (80%< substrate protein remaining %≤ 100%)
O=C1CCC(N2Cc3cc(CN4CCC(N5CCCc6cc(F)ccc65)CC4)ccc3C2=O)C(=O)N1 (centres unmarked) [GT-04691, 3-(5-((4-(6-fluoro-3,4-dihydroquinolin-1(2H)-yl)piperidin-1-yl)methyl)-1-oxoisoindolin-2-yl)piperidine-2,6-dione] | 6.00 to 6.30 | 10 to 50 nM |  |  |  |  |  |  |  |  | A (0% ≤ substrate protein remaining % ≤ 80%) | A (0% ≤ substrate protein remaining % ≤ 80%) | A (0% ≤ substrate protein remaining % ≤ 80%) | A (0% ≤ substrate protein remaining % ≤ 80%) | A (0% ≤ substrate protein remaining % ≤ 80%) | 500 to 1000 nM | 500 to 1000 nM | A (0% ≤ substrate protein remaining % ≤ 80%)
Cc1ccsc1C1=CCN(Cc2ccc3c(c2)C(=O)N(C2CCC(=O)NC2=O)C3=O)CC1 (centres unmarked) [GT-04732, 2-(2,6-dioxopiperidin-3-yl)-5-((4-(3-methylthiophen-2-yl)-3,6-dihydropyridin-1(2H)-yl)methyl)isoindoline-1,3-dione] | 6.00 to 6.30 | 50 to 100 nM |  |  |  |  |  |  |  |  | A (0% ≤ substrate protein remaining % ≤ 80%) | A (0% ≤ substrate protein remaining % ≤ 80%) | B (80%< substrate protein remaining %≤ 100%) | B (80%< substrate protein remaining %≤ 100%) | A (0% ≤ substrate protein remaining % ≤ 80%) | 500 to 1000 nM |  | B (80%< substrate protein remaining %≤ 100%)
